The values below are quoted from earlier work in patent US20220218582A1, “METHOD FOR DYEING KERATINOUS MATERIAL, COMPRISING THE USE OF AN ORGANOSILICON COMPOUND, A CHROMOPHORIC COMPOUND, A MODIFIED FATTY ACID ESTER AND A SEALING REAGENT I” (Henkel AG & Co. KGaA, priority 2019, published 2022).

For this data set the following is noted: 25° C.

As for `O=S(=O)([O-])c1ccc(N=Nc2c(O)ccc3ccccc23)cc1.[Na+]` [Acid Orange 7, sodium salt of 4-[(2-hydroxy-1-naphthyl)azo]benzene sulphonate], the solubility in water result is listed as “more than 7 g/L”.
Consider “mixture of the sodium salts of mono- and disulfonic acids of 2-(2-quinolyl)-1H-indene-1,3(2H)-dione [Acid Yellow 3]”, for which the solubility in water was 20 mg/mL.
As to `Nc1cc(S(=O)(=O)[O-])cc2cc(S(=O)(=O)[O-])c(N=Nc3ccccc3)c(O)c12.[Na+].[Na+]` [Acid Red 33, disodium salt of 5-amino-4-hydroxy-3-(phenylazo)-naphthalene-2,7-disulphonate], the solubility in water is 2.5 mg/mL.
Take `O=C([O-])c1c(Cl)c(Cl)c(Cl)c(Cl)c1-c1c2c(Br)cc(=O)c(Br)c-2oc2c(Br)c(O)cc(Br)c12.O=C([O-])c1c(Cl)c(Cl)c(Cl)c(Cl)c1-c1c2c(Br)cc(=O)c(Br)c-2oc2c(Br)c(O)cc(Br)c12.[Na+].[Na+]` [Acid Red 92, disodium salt of 3,4,5,6-tetrachloro-2-(1,4,5,8-tetrabromo-6-hydroxy-3-oxoxanthen-9-yl)benzoic acid]: the solubility in water result is “greater than 10 g/L”.
Consider `O=C([O-])C1=NN(c2ccc(S(=O)(=O)[O-])cc2)C(=O)C1N=Nc1ccc(S(=O)(=O)[O-])cc1.[Na+].[Na+].[Na+]` (centres unmarked) [Acid Yellow 23, trisodium salt of 4,5-dihydro-5-oxo-1-(4-sulfophenyl)-4-((4-sulfophenyl)azo)-1H-pyrazole-3-carboxylic acid], for which the “solubility in water (in words)” value is “highly soluble”.
